Measurements as given in patent publication US10759777B2, “Carbazole-containing amides, carbamates, and ureas as cryptochrome modulators” (Synchronicity Pharma, Inc., priority 2014, dated 2020).

Columns and labels:
[1] = system: core clock genes Per2, Bmal1, Cry2 in liver; experiment: Four day study, liver core clock gene mRNA in ICR mice; assay type: in vivo, mouse; details: 50 mg/kg PO BID 4 days; for liver Per2 expression: ZT6
Procedure: Male ICR mice (weighing 30-35 g), obtained from Charles River Laboratories (Hollister, Calif.), were used for the experiment following at least 3 days of acclimation. Mice were dosed with vehicle (WFI or 10% Kolliphor) or compound (50 mg/kg, dose volume 5 mL/kg, PO) for 4 days BID (twice a day), beginning in the afternoon of the first day. The last dose of compound or vehicle was administered on the morning of harvest. On the day of harvest (6 hours following the final dose), mice were euthanized by CO2 asphyxiation and 50 mg of liver tissue was excised and placed in a tube containing 500 μl of RNA later.
E.Z.N.A.® HP Total RNA Isolation Kits (R6812-01 and the protocol described in the Manual, Revised 2010) were utilized to prepare and isolate RNA from the liver samples. To prepare the RNA samples, 10-30 mg of sample was removed from RNA-Later and placed in a 1.5 ml microfuge tube. GTC lysis buffer (700 μl) was added to the tissue, which was homogenized with a rotor-stator homogenizer (e.g. Tissue-Tearor, Model #985370 BioSpec Products with 4.5 mm probe, Cat. #985370-04), and then centrifuged at full speed (≥13,000×g) for 5 minutes. The cleared supernatant was transferred by pipetting to a DNA Clearance Column Pre-inserted in a 2 mL Collection Tube. The assembled column was centrifuged at 13,000×g for 1 minute, and the flow-through was saved. An equal volume (700 μl) of 70% ethanol was added to the lysate and mixed. The sample was then applied to a HiBind RNA spin column placed into a 2 ml collection tube, which was centrifuged at 10,000×g for 60 seconds at room temperature. RNA Wash Buffer I (250 μl) was added by pipetting directly onto a new HiBind RNA column inserted in a 2 ml collection tube. The assembled column was centrifuged at 10,000×g for 60 seconds. The RNA column was placed into a new 2 ml collection tube. DNase I stock solution is pipetted (75 μl) directly onto the surface of the HiBind RNA resin in each column (Using DNAse Digestion with RNase Free DNase Set (E1091): for each HiBind RNA column, the DNase I stock solution was prepared as followed: E.Z.N.A.® DNase I Digestion Buffer 73.5 μl, RNase Free DNase I (20 Kunitz/μl) 1.5 μl=Total Volume 75 μl). The column with bound RNA was incubated at room temperature (25-30° C.) for 15 minutes. RNA Wash Buffer I (500 μl) was added to the column and placed on a bench top for 2 minutes. After centrifuging at 10,000×g for 60 seconds, discarding the flow-through, 500 μl of RNA Wash Buffer II was added and centrifuged at 10,000×g for 60 seconds. Another 500 μl of RNA Wash Buffer II was added and the column assembly was centrifuged at 10,000×g for 60 seconds. The column was centrifuged for 2 minutes at maximum speed to completely dry the HiBind matrix. The column was placed in a clean 1.5 ml microcentrifuge tube and 40-70 μl of molecular biology grade water is added. After sitting for 1 minute, the column was centrifuged for 2 minutes at maximum speed to elute the RNA. The isolated RNA was collected into the collection tube.
RediPlate 96 RiboGreen RNA Quantification Kit (Invitrogen) RediPlate standard curve was prepared by transferring 20 l reconstituted RNA standard to a RediPlate well reconstituted in 180 l RediPlate TE buffer. For liver RNAs prepared from 30-100 mg of tissue using a kit similar to the Omega Bio-Tek HP Total RNA Kit and eluted in RNAse-free water in a volume of 50 l (microliters), 5 l of the total RNA is diluted in 195 l of RediPlate TE buffer (1:40 dilution of RNA), mix. After transferring 5 l to RediPlate well reconstituted in 195 l TE buffer and incubating 10 min. at RT, Fluorescence Intensity of wells with standards and samples were read in a Tecan M200 with Excitation set at 480 nm and Emission set at 520 nm with the gain set to ˜70%. Alternatively, one can use the FlexStation 3 with Ex 488 nm and Em 525 nm and a Cutoff of 515 nm.

[2] = system: stable U20S reporter cells harboring Per2-dLuc; experiment: Per2 assay for evaluating the potency of test compounds (Per2-dLuc luminescence amplitude); assay type: cell-based
Procedure: Compounds were screened by using a high-throughput circadian assay system as previously described in Zhang, E. E. et al. Cell, 2009, 139, 199-210. In brief, stable U20S reporter cells harboring Per2-dLuc were plated at a density of 30,000 cells/well in Corning 96-well, solid white, flat bottom, TC-treated microplates (Corning®), and incubated for 48 hours at 37° C. in the presence of 5% CO2 in a medium of Dulbecco's Modified Eagle Medium (DMEM) supplemented with 10% fetal bovine serum (FBS) and penicillin (100 units/mL)-streptomycin (100 μg/mL). […] DMSO stocks are then serially diluted in DMSO, typically diluting 3-fold for each dilution step. […] Immediately following synchronization, 1 μL of compound dilution is added to each well. Plates are sealed, shaken briefly, and gene expression was monitored by measuring luminescence (Tecan® Infinite M200 or Tecan® Infinite M200 Pro) continuously for a minimum of 3 days at 35° C. Raw luminescence data (counts) are first analyzed using Multicycle™ software (Actimetrics, Inc.) to determine the amplitude (amp), period, and phase (phz) for each compound concentration. The period length for control wells (i.e. no compound, DMSO only) should be 26-30 h. Amp data are then plotted against the logarithm compound concentration (M) and analyzed by nonlinear regression analysis to determine the EC50.

[3] = system: rat model of cortisone-induced insulin resistance; experiment: Cortisone induced insulin resistance in rats; assay type: in vivo; details: cortisone 30 mg/kg sc with vehicle po
Procedure: Animals were dosed with cortisone (30 mg/kg sc qd) in combination with test compounds for 6 days and then terminated 27 hours after the final dose of cortisone. A reference standard (Mifepristone) was also included. Cortisone 21-acetate (Sigma C-3130) was supplied by RenaSci and administered using a dose volume of 5 ml/kg via the subcutaneous route as a fine suspension in 1% methylcellulose. […] Mifepristone (Sigma M8046) was provided by RenaSci.
Glucose and insulin determinations were performed on plasma samples obtained from a tail vein bleed taken after a 12 h fast, approximately 27 h after the last cortisone dose. Animals were then terminated and a terminal (cardiac) blood sample taken from which plasma was prepared.
Thirty four male Sprague Dawley rats (weight range 200-250 g) were ordered from Charles River, Margate, Kent, UK. […] Subsequently, animals underwent a 3 day baseline period during which they were dosed once daily with vehicle at t=0 h (07:00). […] Body weight was recorded immediately before dosing began at 07:00 (t=0 h).
On Day 6 of dosing rats were fasted for 12 h beginning at 22:30 (timed to coincide with the Day 7 termination). […] At 10:30 on Day 7, 27 h after the final dose of cortisone, a blood sample (300 μl) was taken from the lateral tail vein into tubes containing EDTA (Sarstedt 16.444). The blood was centrifuged and resultant plasma aliquot stored at −75° C. The animals were euthanized by CO2 asphyxiation followed by cervical dislocation. Terminal blood (approximately 10 ml) was collected by cardiac puncture into tubes containing EDTA (Sarstedt 5 ml 32.332) and then centrifuged and plasma stored at −75° C. The tail vein plasma was analyzed for glucose (n=2) using a commercial clinical reagent (Thermoelectron Infinity glucose reagent (TR15421) and for insulin (n=1) using the Mercodia ultrasensitive rat insulin rat ELISA (10-1251-10).
Plasma glucose and insulin were analyzed by robust regression or general linear model with treatment as a factor and bleeding order and baseline body weight as covariates. A log transformation was used if appropriate. Appropriate multiple comparison tests (two-tailed) were used to determine significant differences from the vehicle group and from the Cortisone group. P<0.05 was considered to be statistically significant.

O=C1C2CCC(C2)N1CC(O)Cn1c2ccc(F)cc2c2cc(F)ccc21 (stereo not drawn) [Compound 48, 2-(3-(3,6-difluoro-9H-carbazol-9-yl)-2-hvdroxypropyl)-2-azabicyclo[2.2.1]heptan-3-one]
liver Per2 expression [1]: suppression
Cry2 transcripts ([1]; liver): decrease
increase in Bmal1 mRNA at ZT6 ([1]; liver): 8 fold

COC1CCCN(CC(O)Cn2c3ccc(F)cc3c3cc(F)ccc32)C1=O (stereo not drawn) [Compound 57, 1-(3-(3,6-difluoro-9H-carbazol-9-yl)-2-hydroxypropyl)-3-methoxypiperidin-2-one]
liver Per2 expression [1]: suppression
increase in Bmal1 mRNA at ZT6 ([1]; liver): ≥ 2 fold

C[C@@H]1CN(C[C@H](O)Cn2c3ccccc3c3ccccc32)C(=O)N1 [Compound 138, (R)-1-((R)-3-(9H-carbazol-9-yl)-2-hydropropyl)-4-methylimidazolidin-2-one]
EC50 [2]: 0.52 µM

C[C@]12CCC(=O)C=C1CC[C@@H]1[C@@H]2C(=O)C[C@@]2(C)[C@H]1CC[C@]2(O)C(=O)CO [Cortisone]
HOMA-IR [3]: 95.57+/−11.4 units
fasted plasma insulin [3]: 8.19 ± 0.91 ng/mL
fasted plasma glucose ([3]; rats): 10.17 ± 0.51 mM
